Assay results reported in ChEMBL document CHEMBL1201862, “PubChem BioAssay data set” (2004).
The source made the active and inactive calls.

Key:
[1] = biological target: T1, Luciferin 4-monooxygenase (Photinus pyralis, UniProt P08659); test: Counter Screen for Luciferase-based Assay Positives. [Related pubchem assays: 620, 618, 411 ]
[2] = system: HT-1080; test: cytotoxicity in HT1080 fibrosarcoma cells, cell-based, fluorescence readout (AID 620); type: functional; details: Homo sapiens
[3] = biological target: T2, Aryl hydrocarbon receptor (Homo sapiens, UniProt P35869); test: Luminescence-based cell-based high throughput dose response assay for activators of the Aryl Hydrocarbon Receptor (AHR). [Related pubchem assays: 2796 (Primary screen (AHR activators in singlicate)), 2845 (Confirmation screen (AHR activators in triplicate)), 434939 (Counterscreen (PXR activators in triplicate)), 2804 (Summary (AHR activators))]; type: ADME
T2 sequence (P35869 whole entry): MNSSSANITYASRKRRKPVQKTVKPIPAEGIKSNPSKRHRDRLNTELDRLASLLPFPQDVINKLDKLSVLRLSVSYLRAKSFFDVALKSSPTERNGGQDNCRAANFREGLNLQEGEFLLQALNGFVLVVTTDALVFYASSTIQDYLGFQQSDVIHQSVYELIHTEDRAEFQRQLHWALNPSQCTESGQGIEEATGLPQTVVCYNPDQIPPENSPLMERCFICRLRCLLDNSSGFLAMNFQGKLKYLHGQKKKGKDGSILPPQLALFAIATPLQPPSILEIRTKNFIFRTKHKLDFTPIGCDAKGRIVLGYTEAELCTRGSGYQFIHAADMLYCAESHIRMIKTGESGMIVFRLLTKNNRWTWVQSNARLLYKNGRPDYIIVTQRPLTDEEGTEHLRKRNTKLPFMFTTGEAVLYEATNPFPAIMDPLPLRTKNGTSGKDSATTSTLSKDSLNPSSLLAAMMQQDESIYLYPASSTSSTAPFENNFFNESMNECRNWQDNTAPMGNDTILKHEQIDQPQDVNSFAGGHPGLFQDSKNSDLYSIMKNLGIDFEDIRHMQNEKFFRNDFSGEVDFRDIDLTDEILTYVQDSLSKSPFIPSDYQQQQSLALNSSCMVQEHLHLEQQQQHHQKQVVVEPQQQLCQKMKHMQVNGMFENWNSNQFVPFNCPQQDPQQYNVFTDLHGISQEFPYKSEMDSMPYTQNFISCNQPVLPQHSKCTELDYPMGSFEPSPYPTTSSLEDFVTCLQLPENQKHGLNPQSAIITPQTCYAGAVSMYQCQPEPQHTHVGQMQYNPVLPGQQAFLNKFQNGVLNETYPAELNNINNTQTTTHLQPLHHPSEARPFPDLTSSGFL

[4] = Luminescence Cell-Based Dose Confirmation HTS to Identify Inhibitors of Platelet Dense Granule Release. [Related pubchem assays: 1663 (Primary HTS), 1678 (Summary of Project)]; type: functional
[5] = Fluorescence Cell-Based Dose Response to Identify Inhibitors of Thrombin Receptor-Activating Peptide SFLLRN-Mediated P-Selectin Induction on Platelets. [Related pubchem assays: 1663 (Primary HTS), 1889 (retest at dose ), 1891 (counterscreen), 1678 (Project Summary)]; type: functional
[6] = biological target: T1, Luciferin 4-monooxygenase; test: firefly luciferase enzyme inhibitors, dose response, biochemical, luminescence (AID 1891)
[7] = biological target: Lytic switch protein BZLF1 (Epstein-Barr virus (strain B95-8) (HHV-4) (Human herpesvirus 4), UniProt P03206); test: EBV ZTA inhibitors, dose response, counter-screen for EBNA-1 inhibitor project, biochemical, fluorescence polarization, Epstein-Barr virus, 1536-well (AID 2377); set-up: species or system human gammaherpesvirus 4;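 further: fluorescence polarization of Cy5-labelled ZRE DNA probe bound by purified Zta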
[8] = biological target: Epstein-Barr nuclear antigen 1 (Epstein-Barr virus (strain B95-8) (HHV-4) (Human herpesvirus 4), UniProt P03211); test: EBNA-1 inhibitors, dose response, biochemical, fluorescence polarization, 1536-well (AID 2381); set-up: species or system human gammaherpesvirus 4;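 further: fluorescence polarization of a Cy5 DNA probe bound by EBNA-1 protein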
[9] = Luminescence Cell-Based Dose Confirmation HTS to Identify Inhibitors of Polyadenylation.; type: functional
[10] = biological target: NADPH oxidase 1 (Homo sapiens, UniProt Q9Y5S8); test: Late-stage luminescence-based cell-based dose response assay to identify inhibitors of NADPH oxidase 1 (NOX1): Purchased analogs 2.; type: functional
[11] = biological target: T3, Estrogen receptor beta (Homo sapiens, UniProt Q92731);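 further: recombinant ER-beta bound to coactivator SRC1 peptide in presence of estradiol agonist; inhibitors block coactivator peptide binding and lower the FRET signal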
[12] = biological target: T3, Estrogen receptor beta; test: ERβ–SRC-3 coactivator interaction inhibitors, confirmation, orthogonal assay, biochemical, ELISA, streptavidin-HRP readout (AID 1060)
[13] = biological target: T4, Bcl-2-like protein 10 (Homo sapiens, UniProt Q9HD36); test: displacers of TR3 peptide from Bcl-B, primary screen, selectivity assay for Bfl-1 inhibitor project, biochemical, fluorescence polarization, FITC-TR3 peptide (AID 748);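 further: fluorescence polarization from a fluorescein-labelled TR3 peptide binding purified Bcl-B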
T4 sequence (Q9HD36 whole entry): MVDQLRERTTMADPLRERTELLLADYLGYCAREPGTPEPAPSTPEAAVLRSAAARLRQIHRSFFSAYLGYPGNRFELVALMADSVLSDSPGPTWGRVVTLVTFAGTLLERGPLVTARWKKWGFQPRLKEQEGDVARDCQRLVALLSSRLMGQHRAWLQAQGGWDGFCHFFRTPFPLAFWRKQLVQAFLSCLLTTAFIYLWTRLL

[14] = biological target: T5, SUMO-activating enzyme (Homo sapiens, UniProt Q9UBT2); test: SUMOylation inhibitor hit validation, confirmation, SUMOylation inhibitor project, biochemical, AlphaScreen (AID 2018); type: functional
[15] = biological target: Bcl-2-like protein 1 (Homo sapiens, UniProt Q07817); test: BCL-XL inhibitors, dose response, selectivity assay for MCL1 inhibitor project, biochemical, fluorescence polarization, 1536-well (AID 2218)
[16] = biological target: T5, SUMO-activating enzyme; test: inhibitors of in vitro SUMOylation cascade, primary screen, biochemical, HTRF, uHTS (AID 2006); type: protein-complex assay
[17] = biological target: Induced myeloid leukemia cell differentiation protein Mcl-1 (Homo sapiens, UniProt Q07820); test: MCL1-BIM BH3 interaction inhibitors, dose response, biochemical, fluorescence polarization, BIM-BH3 peptide, 1536-well (AID 2217)
[18] = biological target: Heat shock protein HSP 90-alpha (Homo sapiens, UniProt P07900); type: functional, organism-based
[19] = Luminescence Cell-Based Dose Response HTS to Identify Activators of Luciferase Translation or Activity in H4 […] Cells. [Related pubchem assays: 1829 (Project Summary), 1814 (Primary HTS)]; type: functional
[20] = system: BJ; test: cytotoxicity toward Ras-transformed BJeLR fibroblasts, dose response, cell-based, alamar blue fluorescence, cherrypicked samples (AID 2631); type: functional; details: Homo sapiens;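 further: confirmatory dose-response assay in RAS-dependent BJ fibroblasts engineered with TERT, LT and ST, with cytotoxicity read by fluorescence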
[21] = cytotoxicity toward DRD oncogenic fibroblasts, dose response, cell-based, non-viral oncogenic, luminescence (AID 1934); type: functional; details: Homo sapiens
[22] = system: H4; test: Luminescence Cell-Based Dose Response HTS to Identify Activators of 5'UTR Stem-Loop Driven Prion Protein mRNA Translation in H4 Neuroglioblastoma Cells. [Related pubchem assays: 1829 (Project Summary), 1814 (Primary HTS)]; type: functional; details: Homo sapiens
[23] = system: BJ; test: cytotoxicity toward BJ-TERT-LT-ST fibroblasts, dose response, cell-based, RAS-independent, luminescence (AID 1935); type: functional; details: Homo sapiens;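 further: BJ fibroblasts immortalized with TERT plus LT and ST oncogenes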
[24] = system: BJ; test: cells; type: functional, cell-based; details: Homo sapiens
[25] = system: BJ; test: cytotoxicity toward BJ-TERT fibroblasts, dose response, cell-based, RAS-independent, luminescence (AID 1933); type: functional; details: Homo sapiens
[26] = cytotoxicity in HEK-293T cells, dose response, cytotoxicity control for TCR NF-kB inhibitor project, luminescence, T-cell screen hits (AID 489026); type: functional, cell-based;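 further: cells exposed to compound about 14 hours before the viability readout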
[27] = system: INS1; test: beta cell apoptosis inhibitors, cytokine rescue, dose response, luminescence, retest (AID 449756); type: functional, cell-based; details: Rattus norvegicus;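 further: cell death triggered by IL-1 beta plus TNF-alpha plus IFN-gamma mixture; protective hits raise ATP signal compared with cytokine alone wells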
[28] = Luminescence Cell-Based Dose Confirmation HTS to Identify Activators of 5'UTR Stem-Loop Driven Alpha-Synuclein mRNA Translation in H4 Neuroglioblastoma Cells. [Related pubchem assays: 1829 (Project Summary), 1814 (Primary HTS)]; type: functional
[29] = system: HeLa; test: Cytotoxicity counterscreen assay for transcriptional activators of heat shock protein 70 (Hsp70). [Related pubchem assays: 1203, 1252 ]; type: functional; details: Homo sapiens;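 further: cells exposed to compound for 16 hours before readout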

T5 sequence (Q9UBE0 whole entry): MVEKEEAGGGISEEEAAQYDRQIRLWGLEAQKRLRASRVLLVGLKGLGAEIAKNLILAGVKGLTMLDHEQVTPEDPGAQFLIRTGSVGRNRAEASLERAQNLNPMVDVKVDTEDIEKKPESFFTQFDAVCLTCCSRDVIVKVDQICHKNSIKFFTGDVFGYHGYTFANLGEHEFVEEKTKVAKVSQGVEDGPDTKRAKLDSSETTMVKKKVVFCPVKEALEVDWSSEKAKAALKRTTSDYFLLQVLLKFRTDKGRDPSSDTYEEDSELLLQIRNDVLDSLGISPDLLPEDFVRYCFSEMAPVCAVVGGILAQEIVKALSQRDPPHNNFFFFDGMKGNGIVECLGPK
T5 sequence (Q9UBT2 whole entry): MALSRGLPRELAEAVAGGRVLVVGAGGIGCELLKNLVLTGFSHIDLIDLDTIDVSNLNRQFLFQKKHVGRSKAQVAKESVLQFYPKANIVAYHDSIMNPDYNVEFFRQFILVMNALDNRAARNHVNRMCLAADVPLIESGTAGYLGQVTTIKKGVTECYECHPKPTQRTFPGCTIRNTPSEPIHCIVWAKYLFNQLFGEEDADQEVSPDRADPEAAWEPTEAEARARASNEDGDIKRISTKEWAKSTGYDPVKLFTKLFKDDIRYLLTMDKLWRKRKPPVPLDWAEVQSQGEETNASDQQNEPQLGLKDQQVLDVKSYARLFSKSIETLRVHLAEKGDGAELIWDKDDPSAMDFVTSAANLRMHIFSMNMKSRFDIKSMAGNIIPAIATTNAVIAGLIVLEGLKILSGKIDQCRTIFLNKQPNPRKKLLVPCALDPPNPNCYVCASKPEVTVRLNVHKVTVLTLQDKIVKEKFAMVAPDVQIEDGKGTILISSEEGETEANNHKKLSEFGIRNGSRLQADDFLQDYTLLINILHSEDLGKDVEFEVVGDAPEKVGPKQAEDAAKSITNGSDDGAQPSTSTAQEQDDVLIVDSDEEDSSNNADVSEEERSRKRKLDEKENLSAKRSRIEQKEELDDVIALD
T1 sequence (P08659 whole entry): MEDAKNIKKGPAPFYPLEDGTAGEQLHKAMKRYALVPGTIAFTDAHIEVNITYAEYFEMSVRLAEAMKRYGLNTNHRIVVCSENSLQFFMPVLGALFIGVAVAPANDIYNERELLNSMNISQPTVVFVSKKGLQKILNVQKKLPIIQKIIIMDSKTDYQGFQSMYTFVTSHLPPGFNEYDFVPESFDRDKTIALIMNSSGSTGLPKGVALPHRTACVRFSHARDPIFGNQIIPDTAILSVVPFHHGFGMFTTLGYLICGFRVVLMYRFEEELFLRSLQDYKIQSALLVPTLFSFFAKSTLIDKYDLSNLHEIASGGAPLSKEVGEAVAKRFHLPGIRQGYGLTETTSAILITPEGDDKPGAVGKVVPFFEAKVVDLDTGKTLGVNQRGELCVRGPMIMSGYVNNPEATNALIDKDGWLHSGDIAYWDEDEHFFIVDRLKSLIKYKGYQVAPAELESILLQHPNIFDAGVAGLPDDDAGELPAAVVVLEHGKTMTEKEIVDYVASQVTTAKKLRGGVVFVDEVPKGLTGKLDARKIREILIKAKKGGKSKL
T3 sequence (Q92731 whole entry): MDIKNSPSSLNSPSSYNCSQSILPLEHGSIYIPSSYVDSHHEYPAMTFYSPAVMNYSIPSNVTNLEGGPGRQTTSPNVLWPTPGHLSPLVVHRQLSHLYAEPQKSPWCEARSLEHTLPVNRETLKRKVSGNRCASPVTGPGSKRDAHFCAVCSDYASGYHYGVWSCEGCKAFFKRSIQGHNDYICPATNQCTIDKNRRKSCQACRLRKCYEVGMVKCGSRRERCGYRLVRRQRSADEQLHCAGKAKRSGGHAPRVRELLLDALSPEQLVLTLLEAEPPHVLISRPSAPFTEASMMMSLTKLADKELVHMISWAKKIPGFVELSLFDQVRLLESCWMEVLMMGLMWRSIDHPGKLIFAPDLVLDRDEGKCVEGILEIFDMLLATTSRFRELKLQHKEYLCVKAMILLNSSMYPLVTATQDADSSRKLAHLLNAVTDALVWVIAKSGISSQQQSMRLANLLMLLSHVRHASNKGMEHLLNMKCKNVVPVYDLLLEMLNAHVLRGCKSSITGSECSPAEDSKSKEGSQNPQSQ
Chain of NADPH oxidase 1 (Q9Y5S8 whole entry): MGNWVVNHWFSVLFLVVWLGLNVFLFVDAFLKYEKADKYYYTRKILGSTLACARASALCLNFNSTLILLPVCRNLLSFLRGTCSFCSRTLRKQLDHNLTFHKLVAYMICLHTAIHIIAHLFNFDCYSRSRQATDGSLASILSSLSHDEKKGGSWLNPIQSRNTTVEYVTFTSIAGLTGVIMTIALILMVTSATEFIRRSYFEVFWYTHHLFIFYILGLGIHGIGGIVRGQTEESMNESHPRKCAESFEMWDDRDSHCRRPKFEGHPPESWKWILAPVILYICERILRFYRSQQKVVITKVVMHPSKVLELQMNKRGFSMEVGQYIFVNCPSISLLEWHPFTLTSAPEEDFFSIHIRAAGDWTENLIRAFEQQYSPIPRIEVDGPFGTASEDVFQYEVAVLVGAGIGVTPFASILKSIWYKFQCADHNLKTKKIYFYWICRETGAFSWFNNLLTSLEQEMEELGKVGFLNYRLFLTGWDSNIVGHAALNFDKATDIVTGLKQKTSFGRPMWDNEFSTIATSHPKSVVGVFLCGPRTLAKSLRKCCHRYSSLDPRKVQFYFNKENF
Chain of Lytic switch protein BZLF1 (P03206 whole entry): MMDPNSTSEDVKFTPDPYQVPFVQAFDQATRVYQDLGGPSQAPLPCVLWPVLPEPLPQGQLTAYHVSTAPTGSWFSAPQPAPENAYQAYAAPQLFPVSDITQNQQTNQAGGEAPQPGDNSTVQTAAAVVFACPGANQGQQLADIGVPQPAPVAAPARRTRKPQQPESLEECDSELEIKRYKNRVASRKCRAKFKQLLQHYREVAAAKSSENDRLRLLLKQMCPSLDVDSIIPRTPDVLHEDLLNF
Chain of Bcl-2-like protein 1 (Q07817 whole entry): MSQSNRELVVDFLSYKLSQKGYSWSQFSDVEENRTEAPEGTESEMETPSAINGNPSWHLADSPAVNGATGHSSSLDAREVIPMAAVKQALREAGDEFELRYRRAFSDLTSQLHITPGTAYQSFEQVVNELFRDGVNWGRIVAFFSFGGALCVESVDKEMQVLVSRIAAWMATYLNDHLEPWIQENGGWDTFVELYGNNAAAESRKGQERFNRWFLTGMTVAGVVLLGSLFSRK
Chain of Induced myeloid leukemia cell differentiation protein Mcl-1 (Q07820 whole entry): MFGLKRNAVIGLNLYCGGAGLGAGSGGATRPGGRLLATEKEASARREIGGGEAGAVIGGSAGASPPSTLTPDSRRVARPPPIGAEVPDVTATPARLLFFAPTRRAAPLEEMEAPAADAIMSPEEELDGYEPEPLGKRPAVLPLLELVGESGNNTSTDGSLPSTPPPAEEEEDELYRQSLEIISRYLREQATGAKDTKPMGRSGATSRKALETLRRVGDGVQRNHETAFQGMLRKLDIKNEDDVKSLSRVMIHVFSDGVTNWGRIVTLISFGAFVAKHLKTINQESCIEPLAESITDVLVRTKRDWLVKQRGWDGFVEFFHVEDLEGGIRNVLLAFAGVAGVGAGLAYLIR
Chain of Epstein-Barr nuclear antigen 1 (P03211 whole entry): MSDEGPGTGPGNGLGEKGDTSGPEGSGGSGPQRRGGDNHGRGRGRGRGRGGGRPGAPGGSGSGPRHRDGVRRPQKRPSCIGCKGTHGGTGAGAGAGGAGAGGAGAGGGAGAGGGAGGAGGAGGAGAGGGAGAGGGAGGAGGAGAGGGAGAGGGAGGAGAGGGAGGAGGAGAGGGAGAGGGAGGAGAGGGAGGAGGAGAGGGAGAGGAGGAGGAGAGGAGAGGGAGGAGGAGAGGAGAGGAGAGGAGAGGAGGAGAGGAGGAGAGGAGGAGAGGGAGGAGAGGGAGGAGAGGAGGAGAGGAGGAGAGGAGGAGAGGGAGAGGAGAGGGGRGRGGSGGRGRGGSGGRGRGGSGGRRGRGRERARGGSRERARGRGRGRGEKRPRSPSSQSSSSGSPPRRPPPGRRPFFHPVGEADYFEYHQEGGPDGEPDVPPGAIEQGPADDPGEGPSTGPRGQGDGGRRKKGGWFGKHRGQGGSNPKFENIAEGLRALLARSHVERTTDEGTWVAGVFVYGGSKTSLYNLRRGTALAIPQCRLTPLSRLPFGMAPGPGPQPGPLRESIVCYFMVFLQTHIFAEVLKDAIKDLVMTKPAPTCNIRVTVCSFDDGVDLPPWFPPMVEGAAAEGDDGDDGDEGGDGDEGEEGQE

Compound: c1ccc(-c2ccc(-c3nc(-c4ccncc4)no3)cc2)cc1
- EC50 [1]: 4.37 µM (active)
- EC50 [2]: > 50 µM (not active)

Compound: CSc1ncc(C(=O)Nc2ccc(Cl)cc2)c(C)n1
- EC50 [3]: 0.0222 µM (active)

Compound: COc1cc2c(cc1OC)-c1cc(Nc3ccc(F)cc3)nc(=O)n1CC2
- EC50 [4]: 1.82 µM (active)
- EC50 [5]: < 0.3 µM (active)
- EC50 [6]: > 112 µM (not active)

Compound: Nc1c(C(=O)Nc2ccc3c(c2)OCCO3)nnn1Cc1cccc(F)c1
- IC50 [7]: > 111 µM (not active)
- IC50 [8]: 13.7 µM (not active)

Compound: Cc1nc2ccc(C(=O)NCc3ccc4c(c3)OCO4)cc2s1
- EC50 [9]: > 120 µM (not active)

Compound: S=C(NNC(=S)Nc1ccc(Cl)cc1)Nc1ccccc1
- IC50 [10]: 0.725 µM (active)

Compound: O=c1nc2s/c(=C\c3ccco3)c(=O)n2nc1Cc1ccc(F)cc1
- IC50 [11]: 2.35 µM (active)
- IC50 [12]: 0.987 µM (not active)
- IC50 [13]: 14.7 µM (active)
- IC50 [14]: 7.36 µM (active)
- IC50 [15]: > 109 µM (not active)
- IC50 [16]: 38.3 µM (active)
- IC50 [17]: > 109 µM (not active)

Compound: CC1C/C(=C/c2ccncc2)C(=O)/C(=C/c2ccncc2)C1 (centres undefined)
- AC50 [18]: 4.23 µM (active)
- EC50 [19]: > 60 µM (not active)
- EC50 [20]: 0.291 µM (active)
- EC50 [21]: 2.23 µM (inconclusive)
- EC50 [22]: > 120 µM (not active)
- EC50 [23]: 2.3 µM (inconclusive)
- EC50 [24]: 1.01 µM (inconclusive)
- EC50 [25]: 1.1 µM (inconclusive)
- IC50 [26]: 54 µM (inactive)
- AC50 [27]: 3.66 µM (active)
- EC50 [28]: > 120 µM (not active)
- CC50 [29]: > 1.22 µM (not active)
